Experiments:
[1] = target: T1, Mitogen-activated protein kinase 15 (Homo sapiens) (UniProt Q8TD08); assay: Selectivity interaction (ProQinase) EUB0000171b MAPK15
T1 sequence (whole entry): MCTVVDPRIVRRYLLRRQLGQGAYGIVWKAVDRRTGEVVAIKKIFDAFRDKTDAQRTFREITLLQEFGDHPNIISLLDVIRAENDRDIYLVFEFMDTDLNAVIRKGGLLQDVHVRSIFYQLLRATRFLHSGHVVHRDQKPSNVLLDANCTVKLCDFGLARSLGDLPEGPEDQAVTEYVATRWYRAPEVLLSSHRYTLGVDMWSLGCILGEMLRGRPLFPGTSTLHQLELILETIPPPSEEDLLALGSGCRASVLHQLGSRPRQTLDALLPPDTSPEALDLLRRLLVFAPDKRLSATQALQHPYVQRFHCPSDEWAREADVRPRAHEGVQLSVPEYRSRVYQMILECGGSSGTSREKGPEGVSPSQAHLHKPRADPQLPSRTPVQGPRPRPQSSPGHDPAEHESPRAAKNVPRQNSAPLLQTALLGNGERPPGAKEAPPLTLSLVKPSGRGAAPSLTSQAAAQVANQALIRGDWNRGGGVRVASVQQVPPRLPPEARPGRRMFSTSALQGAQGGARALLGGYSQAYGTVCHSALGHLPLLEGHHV

[2] = target: T2, Peripheral plasma membrane protein CASK (Homo sapiens) (UniProt O14936); assay: Selectivity interaction (KinomeScan (DiscoverX)) EUB0001079a CASK; details: at 1 µM
T2 sequence (whole entry): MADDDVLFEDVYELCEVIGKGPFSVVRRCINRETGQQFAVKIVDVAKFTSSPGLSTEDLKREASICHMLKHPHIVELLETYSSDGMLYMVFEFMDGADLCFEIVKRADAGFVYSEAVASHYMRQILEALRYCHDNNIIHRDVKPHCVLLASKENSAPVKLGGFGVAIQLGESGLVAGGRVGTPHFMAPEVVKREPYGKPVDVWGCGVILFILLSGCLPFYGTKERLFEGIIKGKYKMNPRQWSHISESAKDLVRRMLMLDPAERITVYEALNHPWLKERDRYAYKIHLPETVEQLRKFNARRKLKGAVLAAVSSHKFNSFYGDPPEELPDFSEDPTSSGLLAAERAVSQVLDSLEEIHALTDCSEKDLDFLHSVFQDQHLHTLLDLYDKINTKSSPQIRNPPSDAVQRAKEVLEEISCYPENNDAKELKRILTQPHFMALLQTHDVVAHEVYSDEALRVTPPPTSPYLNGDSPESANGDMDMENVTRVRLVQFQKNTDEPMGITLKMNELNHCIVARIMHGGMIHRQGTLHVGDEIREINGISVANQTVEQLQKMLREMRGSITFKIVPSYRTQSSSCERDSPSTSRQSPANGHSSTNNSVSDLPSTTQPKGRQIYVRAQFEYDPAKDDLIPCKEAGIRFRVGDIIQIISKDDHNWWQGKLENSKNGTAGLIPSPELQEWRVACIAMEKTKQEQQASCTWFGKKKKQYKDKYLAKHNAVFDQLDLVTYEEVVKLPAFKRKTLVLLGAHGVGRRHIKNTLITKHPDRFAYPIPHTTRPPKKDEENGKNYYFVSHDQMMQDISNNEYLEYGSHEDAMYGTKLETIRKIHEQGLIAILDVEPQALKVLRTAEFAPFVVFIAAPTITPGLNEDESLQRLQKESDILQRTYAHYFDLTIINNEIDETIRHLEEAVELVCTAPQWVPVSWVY

Mu-type opioid receptor = Mu-type opioid receptor (Homo sapiens, UniProt P35372); assay: Selectivity interaction (GPCR panel (PDSP screen)) EUB0001079a OPRM1; details: at 10 µM
[3] = target: Tyrosine-protein kinase ABL1 (Homo sapiens, UniProt P00519); assay: Selectivity interaction (Kinase panel (33PanQinase(R) Activity Assay)) EUB0000877a ABL1
[4] = target: Serine/threonine-protein kinase 38-like (Homo sapiens) (UniProt Q9Y2H1); assay: Selectivity interaction (ActivX KiNativ screen (kinase selectivity in THP-1 cell lysates)) EUB0000639a STK38L; assay type: subcellular; details: lysate, at 0.04 µM
[5] = target: T3, Serine/threonine-protein kinase D1 (Homo sapiens) (UniProt Q15139); assay: Selectivity interaction (SelectScreen profiling (Invitrogen)) EUB0000607a PRKD1; details: at 2 µM
T3 sequence (whole entry): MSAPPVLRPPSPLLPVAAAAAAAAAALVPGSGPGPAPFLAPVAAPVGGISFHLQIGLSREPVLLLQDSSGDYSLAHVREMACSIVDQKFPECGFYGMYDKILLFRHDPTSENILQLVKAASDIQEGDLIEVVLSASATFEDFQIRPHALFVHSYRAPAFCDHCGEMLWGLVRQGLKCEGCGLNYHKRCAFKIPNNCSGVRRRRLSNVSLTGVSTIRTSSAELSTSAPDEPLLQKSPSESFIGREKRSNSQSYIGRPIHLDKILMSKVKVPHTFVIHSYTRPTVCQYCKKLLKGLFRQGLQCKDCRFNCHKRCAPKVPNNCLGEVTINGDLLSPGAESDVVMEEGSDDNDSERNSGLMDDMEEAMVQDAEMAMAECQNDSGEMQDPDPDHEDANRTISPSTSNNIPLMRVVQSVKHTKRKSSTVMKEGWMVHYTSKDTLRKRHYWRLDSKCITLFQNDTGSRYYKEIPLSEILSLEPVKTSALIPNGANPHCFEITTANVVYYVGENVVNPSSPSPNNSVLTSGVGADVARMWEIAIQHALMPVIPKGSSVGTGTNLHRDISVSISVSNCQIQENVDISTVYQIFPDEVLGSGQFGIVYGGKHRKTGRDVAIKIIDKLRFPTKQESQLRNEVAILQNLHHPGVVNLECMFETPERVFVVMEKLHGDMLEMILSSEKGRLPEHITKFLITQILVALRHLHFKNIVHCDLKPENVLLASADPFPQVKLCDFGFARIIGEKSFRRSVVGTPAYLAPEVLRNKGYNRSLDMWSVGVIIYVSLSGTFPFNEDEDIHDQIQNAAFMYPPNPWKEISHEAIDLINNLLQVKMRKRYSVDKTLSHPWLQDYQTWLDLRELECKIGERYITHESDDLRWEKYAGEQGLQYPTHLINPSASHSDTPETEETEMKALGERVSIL

[6] = target: Serine/threonine-protein kinase 38-like (Homo sapiens) (UniProt Q9Y2H1); assay: Selectivity interaction (KinomeScan (DiscoverX)) EUB0000695a STK38L; details: at 100 nM
[7] = target: Proto-oncogene tyrosine-protein kinase ROS (Homo sapiens) (UniProt P08922); assay: Selectivity interaction (KinomeScan (DiscoverX)) EUB0000618a ROS1; details: at 10 µM
[8] = target: Mitogen-activated protein kinase kinase kinase 11 (Homo sapiens) (UniProt Q16584); assay: Selectivity interaction (ActivX KiNativ screen (ex vivo kinase selectivity in human PBMCs)) EUB0001619a MAP3K11; assay type: cell-based; details: PBMC, at 1 µM
[9] = target: Serine/threonine-protein kinase WNK1 (Homo sapiens) (UniProt Q9H4A3); assay: Selectivity interaction (KinomeScan (DiscoverX)) EUB0001619a WNK1; details: at 1 µM

Serine/threonine-protein kinase 38-like (Homo sapiens), sequence (Q9Y2H1 2-464 limits assumed): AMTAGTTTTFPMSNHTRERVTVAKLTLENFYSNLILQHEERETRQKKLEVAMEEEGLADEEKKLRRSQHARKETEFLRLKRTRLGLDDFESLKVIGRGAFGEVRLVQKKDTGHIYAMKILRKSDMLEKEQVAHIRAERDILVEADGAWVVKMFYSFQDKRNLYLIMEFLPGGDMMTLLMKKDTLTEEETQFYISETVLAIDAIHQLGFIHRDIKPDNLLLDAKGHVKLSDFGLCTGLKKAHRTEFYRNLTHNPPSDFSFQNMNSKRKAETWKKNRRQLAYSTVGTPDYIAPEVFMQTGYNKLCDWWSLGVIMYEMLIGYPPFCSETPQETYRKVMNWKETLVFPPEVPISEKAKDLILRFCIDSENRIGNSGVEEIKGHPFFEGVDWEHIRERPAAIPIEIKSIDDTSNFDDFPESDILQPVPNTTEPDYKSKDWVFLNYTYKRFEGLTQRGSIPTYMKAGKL
Proto-oncogene tyrosine-protein kinase ROS (Homo sapiens), sequence (P08922 whole entry): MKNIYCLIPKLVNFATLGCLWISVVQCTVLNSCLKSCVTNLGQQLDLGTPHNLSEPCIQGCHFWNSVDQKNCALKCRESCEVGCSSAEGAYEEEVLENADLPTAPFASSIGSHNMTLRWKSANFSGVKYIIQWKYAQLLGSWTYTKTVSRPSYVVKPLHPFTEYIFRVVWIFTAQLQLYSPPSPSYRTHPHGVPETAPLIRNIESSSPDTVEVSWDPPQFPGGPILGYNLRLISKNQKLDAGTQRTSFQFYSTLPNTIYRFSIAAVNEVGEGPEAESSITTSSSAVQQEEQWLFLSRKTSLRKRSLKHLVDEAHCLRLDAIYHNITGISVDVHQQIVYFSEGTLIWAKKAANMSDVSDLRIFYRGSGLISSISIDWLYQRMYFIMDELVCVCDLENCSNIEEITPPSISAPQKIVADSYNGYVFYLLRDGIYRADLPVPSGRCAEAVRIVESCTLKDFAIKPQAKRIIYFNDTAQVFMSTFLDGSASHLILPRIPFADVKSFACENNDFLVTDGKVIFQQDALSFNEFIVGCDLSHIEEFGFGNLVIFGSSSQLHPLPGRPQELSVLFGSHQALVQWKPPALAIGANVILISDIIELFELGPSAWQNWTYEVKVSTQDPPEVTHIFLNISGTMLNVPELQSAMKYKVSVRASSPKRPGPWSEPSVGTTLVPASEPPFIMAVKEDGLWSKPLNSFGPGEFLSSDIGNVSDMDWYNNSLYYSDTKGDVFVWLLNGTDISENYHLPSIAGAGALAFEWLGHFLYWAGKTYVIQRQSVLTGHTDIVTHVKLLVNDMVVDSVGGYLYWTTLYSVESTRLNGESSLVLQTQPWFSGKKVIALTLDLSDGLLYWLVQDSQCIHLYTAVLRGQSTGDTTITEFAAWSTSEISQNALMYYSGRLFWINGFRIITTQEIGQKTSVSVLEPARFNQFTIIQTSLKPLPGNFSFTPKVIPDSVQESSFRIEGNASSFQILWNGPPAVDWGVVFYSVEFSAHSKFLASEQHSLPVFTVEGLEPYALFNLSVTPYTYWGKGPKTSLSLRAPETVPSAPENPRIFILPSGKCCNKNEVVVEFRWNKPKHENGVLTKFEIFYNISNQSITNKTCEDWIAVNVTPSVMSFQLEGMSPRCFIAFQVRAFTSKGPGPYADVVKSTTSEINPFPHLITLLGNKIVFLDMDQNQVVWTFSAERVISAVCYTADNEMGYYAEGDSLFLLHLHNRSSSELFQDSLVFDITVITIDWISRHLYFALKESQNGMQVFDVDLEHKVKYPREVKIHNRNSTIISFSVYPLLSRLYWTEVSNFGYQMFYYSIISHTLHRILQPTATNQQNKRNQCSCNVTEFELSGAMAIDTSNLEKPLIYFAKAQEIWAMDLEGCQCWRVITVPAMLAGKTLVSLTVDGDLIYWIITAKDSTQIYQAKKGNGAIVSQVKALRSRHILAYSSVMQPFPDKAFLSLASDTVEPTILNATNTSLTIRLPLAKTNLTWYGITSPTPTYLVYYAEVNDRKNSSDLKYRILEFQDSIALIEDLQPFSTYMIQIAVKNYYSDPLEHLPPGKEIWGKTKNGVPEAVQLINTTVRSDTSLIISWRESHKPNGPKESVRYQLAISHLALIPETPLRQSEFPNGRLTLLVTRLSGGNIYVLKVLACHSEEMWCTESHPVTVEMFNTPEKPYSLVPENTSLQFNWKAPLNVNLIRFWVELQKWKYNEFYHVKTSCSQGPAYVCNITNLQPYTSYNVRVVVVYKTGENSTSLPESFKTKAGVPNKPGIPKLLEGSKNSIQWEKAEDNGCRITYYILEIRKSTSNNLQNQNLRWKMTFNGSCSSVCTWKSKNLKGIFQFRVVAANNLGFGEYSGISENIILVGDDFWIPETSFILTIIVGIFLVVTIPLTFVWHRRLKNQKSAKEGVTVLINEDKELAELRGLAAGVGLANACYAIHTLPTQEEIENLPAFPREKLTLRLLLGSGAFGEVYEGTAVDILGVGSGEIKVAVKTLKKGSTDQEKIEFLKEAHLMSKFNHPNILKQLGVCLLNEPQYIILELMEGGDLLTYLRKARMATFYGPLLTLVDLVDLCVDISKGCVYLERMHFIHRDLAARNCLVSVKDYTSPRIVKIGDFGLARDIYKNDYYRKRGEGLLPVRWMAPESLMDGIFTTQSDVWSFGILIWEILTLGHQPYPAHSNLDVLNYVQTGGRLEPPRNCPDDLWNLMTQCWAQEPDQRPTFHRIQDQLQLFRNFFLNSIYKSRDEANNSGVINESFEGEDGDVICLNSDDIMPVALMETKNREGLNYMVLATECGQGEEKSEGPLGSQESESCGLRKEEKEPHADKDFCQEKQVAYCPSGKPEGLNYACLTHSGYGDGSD
Tyrosine-protein kinase ABL1, sequence (P00519 whole entry): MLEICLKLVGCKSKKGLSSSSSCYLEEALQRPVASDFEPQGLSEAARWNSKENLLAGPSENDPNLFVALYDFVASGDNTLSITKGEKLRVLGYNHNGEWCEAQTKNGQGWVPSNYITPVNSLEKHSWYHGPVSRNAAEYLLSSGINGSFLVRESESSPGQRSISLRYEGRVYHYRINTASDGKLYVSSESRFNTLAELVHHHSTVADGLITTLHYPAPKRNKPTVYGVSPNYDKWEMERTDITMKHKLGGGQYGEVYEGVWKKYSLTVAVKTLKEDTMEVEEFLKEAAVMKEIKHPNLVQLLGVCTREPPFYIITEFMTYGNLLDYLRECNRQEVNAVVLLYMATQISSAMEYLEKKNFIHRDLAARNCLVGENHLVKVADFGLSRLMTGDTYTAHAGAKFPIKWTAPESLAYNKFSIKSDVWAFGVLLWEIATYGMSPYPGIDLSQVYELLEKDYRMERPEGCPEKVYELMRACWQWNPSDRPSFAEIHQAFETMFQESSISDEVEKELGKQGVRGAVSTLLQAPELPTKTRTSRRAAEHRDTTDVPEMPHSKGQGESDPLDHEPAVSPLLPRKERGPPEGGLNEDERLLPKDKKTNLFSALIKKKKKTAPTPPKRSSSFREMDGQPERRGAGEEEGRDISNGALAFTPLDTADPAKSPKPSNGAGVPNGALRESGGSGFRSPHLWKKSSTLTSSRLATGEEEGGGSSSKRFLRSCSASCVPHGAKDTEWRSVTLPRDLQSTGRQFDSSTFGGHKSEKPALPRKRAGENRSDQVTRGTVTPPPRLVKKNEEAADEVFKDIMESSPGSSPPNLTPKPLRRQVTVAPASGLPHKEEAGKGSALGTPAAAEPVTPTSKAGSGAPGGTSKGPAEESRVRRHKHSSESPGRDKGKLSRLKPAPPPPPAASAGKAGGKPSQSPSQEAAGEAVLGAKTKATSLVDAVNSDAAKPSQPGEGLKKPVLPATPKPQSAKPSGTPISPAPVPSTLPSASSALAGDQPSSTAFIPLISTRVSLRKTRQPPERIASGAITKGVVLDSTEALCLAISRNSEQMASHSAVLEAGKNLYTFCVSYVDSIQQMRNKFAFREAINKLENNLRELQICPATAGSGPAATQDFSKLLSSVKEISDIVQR
Mu-type opioid receptor, sequence (P35372 whole entry): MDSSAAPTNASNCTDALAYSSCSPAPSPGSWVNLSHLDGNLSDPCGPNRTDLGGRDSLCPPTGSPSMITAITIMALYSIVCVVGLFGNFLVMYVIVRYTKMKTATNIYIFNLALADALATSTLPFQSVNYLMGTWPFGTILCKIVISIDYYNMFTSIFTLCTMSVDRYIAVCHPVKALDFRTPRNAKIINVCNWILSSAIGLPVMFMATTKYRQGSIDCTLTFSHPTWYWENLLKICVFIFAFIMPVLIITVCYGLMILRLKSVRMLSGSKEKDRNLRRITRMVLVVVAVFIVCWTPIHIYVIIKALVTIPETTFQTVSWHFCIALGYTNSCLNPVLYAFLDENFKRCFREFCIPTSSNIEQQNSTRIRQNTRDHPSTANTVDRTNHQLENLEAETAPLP

## C=CC(=O)Nc1cccc(C(=O)Nc2ccc(Nc3cc(-c4[nH]c(SC)nc4C)ccn3)cc2)c1
[1]; at 1 µM
  % of control: 66%
[1]; at 5 µM
  % of control: 31%

## Nc1cnc(N2CCc3cc(S(=O)(=O)Nc4c(F)cc(Cl)cc4F)cc(N4CCCC4=O)c32)nc1 [TP-020n]
[2]
  % of control: 94%
Mu-type opioid receptor
  % of inhibition: -1.31%

## CCC(=O)N1CC[C@H](Nc2ncnc3c2CN(c2cnc(OC)c(C(F)(F)F)c2)CC3)C1 [LENIOLISIB]
[3]
  IC50: > 10 µM

## CC[C@@H]1[C@H](F)C(=O)N[C@@H]1COc1nccc2cc(C(N)=O)c(OC)cc12 [ZIMLOVISERTIB]
[4]
  % of inhibition: 7.6%

## CNC(=O)Nc1ccc(-c2nc(N3CC4CCC(C3)O4)c3cnn(C4CCC5(CC4)OCCO5)c3n2)cc1
[5]
  % of inhibition: 0%

## Cc1cc(F)c(C(=O)Nc2cccc(-c3nncn3C(C)C)n2)cc1-n1cnc(C2CC2)c1
[6]
  % of control: 100%

## O[C@H]1CC[C@H](Nc2ncc3nc(Nc4c(F)cc(F)cc4F)n([C@H]4CCOC4)c3n2)CC1
[7]
  % of control: 95%

## N#Cc1cccc(-c2c[nH]c3ncnc(N4CCOCC4)c23)c1
[8]
  % of inhibition: 20%
[9]
  % of control: 100%

Source: ChEMBL document CHEMBL5465560, “Selectivity Literature for EUbOPEN Chemogenomic Library” (2024)
